According to patent US20240368133A1, “Compounds for the Treatment of Pain, in Particular, Neuropathic Pain, and/or Other Diseases or Disorders that are Associated with AT2R and/or AT2R Mediated Signaling” (Confo Therapeutics N.V., priority 2021, published 2024):

Tests used:
[1] = Liver microsomal stability, mouse; format: in vitro ADME; details: male, pH 7.4, liver microsomes
Experimental: Mouse hepatic microsomes were isolated from pooled (50), perfused livers of male Balb/c mice. Rat hepatic microsomes were isolated from pooled (15), perfused livers of male Wistar rats. Isolation was performed according to the standard protocol (Hill, J. R. in Current Protocols in Pharmacology 7.8.1-7.8.11, Wiley Interscience, 2003). The batches of microsomes were tested for quality control using Imipramine, Propranolol and Verapamil as reference compounds.
Microsomal incubations were carried out in 96-well plates in 5 aliquots of 40 μL each (one for each time point). Liver microsomal incubation medium contained PBS (100 mM, pH 7.4), MgCl2 (3.3 mM), NADPH (3 mM), glucose-6-phosphate (5.3 mM), glucose-6-phosphate dehydrogenase (0.67 units/ml) with 0.42 mg of liver microsomal protein per ml. Control incubations were performed replacing the NADPH-cofactor system with PBS. Test compound (2 μM, final solvent concentration 1.6%) was incubated with microsomes at 37° C., shaking at 100 rpm. Incubations were performed in duplicates. Five time points over 40 minutes have been analyzed. The reactions were stopped by adding 12 volumes of 90% acetonitrile-water to incubation aliquots, followed by protein sedimentation by centrifuging at 5500 rpm for 3 minutes. […]. Supernatants were analyzed using the HPLC system coupled with tandem mass spectrometer (API3000 PE Sciex). Acquisition and analysis of the data were performed using Analyst 1.5.2 software (PE Sciex). The elimination constant (kel), half-life (t½) and intrinsic clearance (Clint) were determined in plot of […] versus time, using linear regression analysis:
Mouse hepatic microsomes were isolated from pooled, perfused livers of male CD1 mice. Rat hepatic microsomes were isolated from pooled, perfused livers of male Sprague Dawley rats. Dog hepatic microsomes were isolated from pooled, perfused livers of male Beagle dogs. The batches of microsomes were tested for quality control using Testosterone, Propranolol and Caffeine as reference compounds.
A 10 mM stock solution of compound in DMSO is diluted three-fold in DMSO. This pre-diluted compound solution is then further diluted to 2 μM in a 50 mM phosphate buffer (PBS, pH 7.4) and pre-warmed at 37° C. This compound dilution is mixed F2 with microsomal/cofactor mix at 37° C. under shaking at 300 rpm. Final reaction conditions are: 100 μL incubation volume, 1 μM of test compound (in duplicate), <0.1% DMSO, 0.5 mg/mL microsomes, 0.6 U/mL Glucose-6-phosphate-dehydrogenase (G6PDH, Roche, 10127671001), 3.3 mM MgCl2 (Sigma, M2670), 3.3 mM glucose-6-phosphate (Sigma, G-7879) and 1.3 mM NADP+ (Sigma, N-0505).
After 60 min of incubation at 300 rpm and 37° C., the reaction was stopped with 3 volumes of STOP solution (acetonitrile/MeOH 2/1 with diclofenac as internal standard). For the time point zero, 3 volumes of STOP solution were added to the compound dilution before the microsome mix was added. Six time points over 60 minutes have been analyzed. The samples of all time points were centrifuged, filtered and the supernatant analyzed by LCMS/MS (systems API4000).
The instrument responses (peak areas/IS peak area) were referenced to the zero time-point samples (considered as 100%) in order to determine the percentage of compound remaining.
Testosterone (1 μM) and Propranolol and Caffeine (1 μM) were used as reference compounds, being unstable and stable compounds respectively. If the microsomal stability values for these controls are not in the range determined by the historical data, the assay is not validated. The solubility of the compound in the final test concentration in 50 mM buffer pH 7.4 is checked by microscope to indicate whether precipitation is observed or not. If a precipitate is observed, no data of microsomal stability is generated.

CYP2D6 = CYP2D6 (Homo sapiens (Human), UniProt P10635); assay: CYP inhibition, CYP2D6; format: in vitro ADME; details: test compound at 10 μM, read-out: % Inhibition (PIN) 2D6
Experimental: The aim of this assay is to determine the inhibitory potential of a test compound. A major concern for drug-drug-interaction is cytochrome P450 inhibition. Reversible CYP inhibition was determined in human liver microsomes using specific probe substrates for human cytochrome P450 isoenzymes CYP1A2, 2C9, 2C19, 2D6 and 3A4. […]
A 10 mM stock solution of test compound is prepared in methanol. This stock is further serially diluted 1:3 in methanol and then added to mixture containing 50 mM potassium phosphate buffer pH7.4, human liver microsomes (BD Gentest) and probe substrate. After pre-warming 5 min at 37° C., the reaction is started by adding co-factor mix ([…] glucose-6-phosphate, 1.7 mg/mL NADP, 6 U/mL of glucose-6-phosphate dehydrogenase), resulting in a final concentration of test compound at 10 μM (2% MeOH).
Final concentrations of co-factor mix components are as follows: 1.56 mg/mL glucose-6-phosphate, 0.34 mg/mL NADP, 1.2 U/mL of glucose-6-phosphate dehydrogenase.
After incubation at 37° C., the reaction (aliquot of 50 μL) is terminated with 150 μL CH3CN:MeOH (2:1) solution with internal standard (warfarin for 2C9, diclofenac for all other tested isoforms). Samples are centrifuged and the supernatant fractions analyzed by LC-MS/MS.
The instrument responses (ratio of test compound and internal standard peak areas) are referenced to those for solvent controls (assumed as 100%) in order to determine the percentage reduction in probe metabolism. Percent of control activity vs. concentration plots are generated and fitted using GraphPad Prism software to generate IC50.

Sequence of CYP2D6 (P10635 whole entry): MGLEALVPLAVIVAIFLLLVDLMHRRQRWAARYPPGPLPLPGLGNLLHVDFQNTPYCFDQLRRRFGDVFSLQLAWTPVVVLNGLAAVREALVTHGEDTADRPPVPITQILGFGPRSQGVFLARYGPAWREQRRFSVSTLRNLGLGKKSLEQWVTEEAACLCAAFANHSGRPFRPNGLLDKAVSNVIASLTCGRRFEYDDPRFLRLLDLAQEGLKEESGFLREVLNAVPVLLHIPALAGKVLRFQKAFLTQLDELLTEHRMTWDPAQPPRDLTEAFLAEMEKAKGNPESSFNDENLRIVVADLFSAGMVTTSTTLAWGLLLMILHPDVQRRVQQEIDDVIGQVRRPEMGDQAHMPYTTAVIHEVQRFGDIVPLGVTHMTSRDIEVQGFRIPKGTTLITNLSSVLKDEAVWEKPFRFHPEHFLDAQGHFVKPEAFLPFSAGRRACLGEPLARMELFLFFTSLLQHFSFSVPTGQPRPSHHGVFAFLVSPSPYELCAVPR

Structure (SMILES) | microsomal CLint [1] | inhibition at 10 µM (CYP2D6)
CC(C)Oc1ccc(-c2nn[nH]n2)c(N2CCN(Cc3nc4ccccc4c(=O)[nH]3)CC2)c1 [Compound A-32] | 6 µL/min/mg | 38.2%
CCCCNC(=O)NS(=O)(=O)c1ccc(C(F)(F)F)cc1N1CCN(Cc2nc3ccccc3n2C)CC1 [Compound A-10, 1-butyl-3-[2-[4-[(1-methylbenzimidazol-2-yl)methyl]piperazin-1-yl]-4-(trifluoromethyl)phenyl]sulfonyl-urea] | 69 µL/min/mg | 14.8%
CC(C)Oc1ccc(-c2nn[nH]n2)c(N2CCN(Cc3nc4ccccc4n3C)CC2)c1 [Compound A-24, 2-[[4-[5-isopropoxy-2-(2H-tetrazol-5-yl)phenyl]piperazin-1-yl]methyl]-1-methyl-benzimidazole] | 9 µL/min/mg | 3.85%
CC(C)Cc1ccc(-c2nn[nH]n2)c(N2CCN(Cc3nc4ccccc4n3C)CC2)c1 [Compound A-20, 2-[[4-[5-isobutyl-2-(2H-tetrazol-5-yl)-phenyl]piperazin-1-yl]methyl]-1-meth-yl-benzimidazole] | 20 µL/min/mg | –
Cc1cc(CN2CCN(c3cc(CC(C)C)ccc3-c3nn[nH]n3)CC2)no1 [Compound A-82, 3-[[4-[5-isobutyl-2-(2H-tetrazol-5-yl)phenyl]piperazin-1-yl]methyl]-5-methyl-isoxazole] | 7 µL/min/mg | -2.54%
CC(C)Cc1ccc(-c2nn[nH]n2)c(N2CCN(Cc3nc4ccccc4c(=O)[nH]3)CC2)c1 [Compound A-31, 2-[[4-[5-isobutyl-2-(2H-tetrazol-5-yl)phenyl]piperazin-1-yl]methyl]-3H-quinazolin-4-one] | 16 µL/min/mg | 23.1%
CCC1CN(c2cc(CC(C)C)cc(F)c2-c2nn[nH]n2)CCN1Cc1cccnn1 (centres unmarked) [Compound A-178, 3-[[2-ethyl-4-[3-fluoro-5-isobutyl-2-(2H-tetrazol-5-yl)phenyl]piperazin-1-yl]methyl]pyridazine] | 15 µL/min/mg | 25.6%
CCCCOC(=O)NS(=O)(=O)c1ccc(C(F)(F)F)cc1N1CCN(Cc2nc3ccccc3n2C)CC1 [Compound A-09, butyl N-[2-[4-[(1-methylbenzimidazol-2-yl)methyl]piperazin-1-yl]-4-(trifluoromethyl)phenyl]sulfonylcarbamate] | 33 µL/min/mg | –
CC(C)Oc1ccc(-c2nn[nH]n2)c(N2CCN(Cc3nc4ccccc4s3)CC2)c1 [Compound A-51, 2-[[4-[5-isoprop-oxy-2-(2H-tetrazol-5-yl)phenyl]piper-azin-1-yl]methyl]-1,3-benzothiazole] | 4 µL/min/mg | –
CCCCNC(=O)NS(=O)(=O)c1ccc(C)cc1N1CCN(Cc2nc3ccccc3n2C)CC1 [Compound A-12, 1-butyl-3-[4-methyl-2-[4-[(1-methylbenzimidazol-2-yl)methyl]piperazin-1-yl]phenyl]sulfonyl-urea] | 157 µL/min/mg | –

Continued, values first:

microsomal CLint [1] | inhibition at 10 µM (CYP2D6) | Structure (SMILES)
7 µL/min/mg | 6.32% | CC(C)Cc1ccc(-c2nn[nH]n2)c(N2CCN(Cc3ncccn3)CC2)c1 [Compound A-88]
– | 68% | CC(C)Cc1cc(F)c(-c2nn[nH]n2)c(N2CCN(Cc3ccccn3)[C@@H](C)C2)c1 [Compound A-217, (2S)-4-[3-fluoro-5-isobutyl-2-(2H-tetrazol-5-yl)phenyl]-2-methyl-1-(2-pyridylmethyl)piperazine]
11 µL/min/mg | -0.65% | CC(C)Cc1ccc(-c2nn[nH]n2)c(N2CCN(Cc3nccn3C)CC2)c1 [Compound A-83, 1-[5-isobutyl-2-(2H-tetrazol-5-yl)-phenyl]-4-[(1-meth-ylimidazol-2-yl)-methyl]piperazine]
– | 15% | Cc1cnc(CN2CCN(c3cc(CC(C)C)cc(F)c3-c3nn[nH]n3)C[C@@H]2C)s1 [Compound A-223, 2-[[(2S)-4-[3-fluoro-5-isobutyl-2-(2H-tetrazol-5-yl)phenyl]-2-methyl-piperazin-1-yl]methyl]-5-methyl-thiazole]
5 µL/min/mg | 16.3% | CC(C)Cc1cc(F)c(-c2nn[nH]n2)c(N2CCN(Cc3cccnn3)C(C)C2)c1 (centres unmarked) [Compound A-173, 3-[[4-[3-fluoro-5-isobutyl-2-(2H-tetrazol-5-yl)phenyl]-2-methyl-piperazin-1-yl]methyl]pyridazine]
6 µL/min/mg | – | CCC1CN(Cc2cccnn2)CCN1c1cc(CC(C)C)cc(F)c1-c1nn[nH]n1 (centres unmarked) [Compound A-181, 3-[[3-ethyl-4-[3-fluoro-5-isobutyl-2-(2H-tetrazol-5-yl)phenyl]piperazin-1-yl]methyl]pyridazine]
17 µL/min/mg | -7.67% | CC(C)Cc1ccc(-c2nn[nH]n2)c(N2CCN(Cc3ccnn3C)CC2)c1 [Compound A-84, 1-[5-isobutyl-2-(2H-tetrazol-5-yl)phenyl]-4-[(1-methylpyrazol-5-yl)methyl]piperazine]
12 µL/min/mg | – | CC(C)Cc1cc(F)c(-c2nn[nH]n2)c(N2CC(C)N(Cc3cccnn3)CC2C)c1 (centres unmarked) [Compound A-183, 3-[[4-[3-fluoro-5-isobutyl-2-(2H-tetrazol-5-yl)phen-yl]-2,5-dimethyl-piperazin-1-yl]-methyl]pyridazine]
10 µL/min/mg | 1.84% | CC(C)Cc1ccc(-c2nn[nH]n2)c(N2CCN(Cc3cccnn3)CC2)c1 [Compound A-90, 3-[[4-[5-isobutyl-2-(2H-tetrazol-5-yl)phenyl]piperazin-1-yl]methyl]pyridazine]
15.3 µL/min/mg | 9.35% | CC(C)Cc1cc(F)c(-c2nn[nH]n2)c(N2CCN(Cc3cccnn3)[C@@H](C)C2)c1 [Compound A-174, 3-[[(2S)-4-[3-fluoro-5-isobutyl-2-(2H-tetrazol-5-yl)phenyl]-2-methyl-piperazin-1-yl]methyl]pyridazine]
